Patent publication US6150359A, “Naphthyridinones for inhibiting protein tyrosine kinase and cell cycle kinase mediated cellular proliferation” (Warner-Lambert Company, priority 2000, dated 2000)
pIC50: −log10 of the molar value.

Experiments:
[1] = molecular target: T1, FGFr (human FGF-1 (flg) receptor tyrosine kinase) (Homo sapiens, UniProt P11362); experiment: FGFr tyrosine kinase assay, 32P incorporation into glutamate-tyrosine copolymer; type: biochemical
T1 construct: PCR primers are designed to amplify a fragment of DNA that codes for the intracellular tyrosine kinase domain; made in house; host or cells: Sf9 insect cells (baculovirus), cell lysate
T1 sequence (P11362 478-767 limits assumed): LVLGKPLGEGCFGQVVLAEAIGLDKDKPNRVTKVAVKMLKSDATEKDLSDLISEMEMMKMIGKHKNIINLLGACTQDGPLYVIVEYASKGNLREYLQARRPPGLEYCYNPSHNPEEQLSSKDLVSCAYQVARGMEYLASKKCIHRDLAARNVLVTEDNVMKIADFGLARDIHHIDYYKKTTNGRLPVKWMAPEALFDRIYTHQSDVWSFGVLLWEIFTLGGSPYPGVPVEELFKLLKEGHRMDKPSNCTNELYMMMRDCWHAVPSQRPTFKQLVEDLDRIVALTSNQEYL
Description: Platelet Derived Growth Factor Receptor (PDGFr) and Fibroblast Growth Factor Receptor (FGFr). Full length cDNAs for the mouse PDGF-β and human FGF-1 (flg) receptor tyrosine kinases were obtained from J. Escobedo and are prepared as described in J. Biol. Chem., 1991;262:1482-1487. PCR primers are designed to amplify a fragment of DNA that codes for the intracellular tyrosine kinase domain. The fragment is melded into a baculovirus vector, cotransfected with AcMNPV DNA, and the recombinant virus isolated. SF9 insect cells are infected with the virus to overexpress the protein, and the cell lysate is used for the assay.
PDGFr and FGFr. […] Briefly, to each well is added 82.5 μL of incubation buffer containing 25 mM Hepes (pH 7.0), 150 mM NaCl, 0.1% Triton X-100, 0.2 mM PMSF, 0.2 mM sodium vanadate, 10 mM manganese chloride, and 750 μg/mL of poly (4:1) glutamate-tyrosine followed by 2.5 μL of inhibitor and 5 μL of enzyme lysate (7.5 μg/μL FGFR-TK or 6.0 μg/μL PDGFR-TK) to initiate the reaction. Following a 10 minute incubation at 25° C., 10 μL of [γ^32 P]ATP (0.4 μCi plus 50 μM ATP) is added to each well, and samples are incubated for an additional 10 minutes at 25° C. The reaction is terminated by the addition of 100 μL of 30% trichloroacetic acid (TCA) containing 20 mM sodium pyrophosphate and precipitation of material onto glass fiber filter mats (Wallac). […] Nonspecific activity is defined as radioactivity retained on the filters following incubation of samples with buffer alone; (no enzyme). Specific enzymatic activity is defined as total activity (enzyme plus buffer) minus nonspecific activity.

[2] = molecular target: MAP Kinase Pathway (GST-MEK / GST-MAPK); experiment: Cascade Assay for Inhibitors of the MAP Kinase Pathway (APK Assay); type: biochemical; settings: 50 μM [γ32P]ATP; compounds assessed at 10 μM
Description: Cascade Assay for Inhibitors of the MAP Kinase Pathway (APK Assay)
Incorporation of ^32 P into myelin basic protein (MBP) is assayed in the presence of a glutathione; S-transferase fusion protein containing p44MAP kinase (GST-MAPK) and a glutathione; S-transferase fusion protein containing p45MEK (GST-MEK). The assay solution contains 20 mM HEPES, pH 7.4, 10 mM magnesium chloride, 1 mM manganese chloride, 1 mM EGTA, 50 μM [γ^32 P]ATP, 10 μg GST-MEK, 0.5 μg GST-MAPK and 40 μg MBP in a final volume of 100 μL. Reactions are stopped after 20 minutes by addition of trichloroacetic acid and filtered through a GF/C filter mat. ^32 P retained on the filter mat is determined using a 1205 betaplate. Compounds are assessed at 10 μM for ability to inhibit incorporation of ^32 P.
To ascertain whether compounds are inhibiting GST-MEK or GST MAPK, two additional protocols are employed. In the first protocol, compounds are added to tubes containing GST-MEK, followed by addition of GST-MAPK, MBP and [γ^32 P]ATP. In the second protocol, compounds are added to tubes containing both GST-MEK and GST-MAPK, followed by MBP and [γ^32 P]ATP.
Compounds that show activity in both protocols are scored as MAPK inhibitors, while compounds showing activity in only the first protocol are scored as MEK inhibitors.

[3] = tested on: SW-620 cells; experiment: Human Colon Carcinoma Clonogenic Assay, SW-620; type: cell-based; settings: SW-620, 2 days with drug, colonies after approximately 2 weeks
Description: Human Colon Carcinoma Clonozenic Assay. Human colon carcinoma cells are seeded into 6 well plates in volumes of 3 mL and allowed to incubate overnight (37° C., 5% CO2, 95% air). SW-620 cells are seeded at 7×10^5 per well; HCT-8 cells are seeded at 5×10^5 per well; HT-29 cells are seeded at 4×10^5 cells per well. Serially diluted drugs are prepared at 200 times the final concentration, and 15 μL are added to each of duplicate wells. Cells are incubated with drug for 2 days, rinsed once with 1 mL of trypsin+EDTA, and then trypsinized with the same trypsin solution. After trituration and centrifugation at 750×g for 3 minutes, the cells are suspended in serum-free growth medium and counted using an electronic particle counter. An agarose mixture appropriate for the cloning of each cell line is made using 10% fetal bovine serum in growth medium (SW-620-0.35% agarose, HCT-8 and HT-29-0.4% agarose). […] One; milliliter of each of these cell suspensions is added to duplicate wells of 6 well plates previously prepared with 10% serum/growth medium/1% agarose plugs. The cells in these plates are incubated for approximately 2 weeks in the incubator and stained with 1 mL per well of 1 mg/mL iodonitrotetrazolium violet stain. The visible colonies are counted with an electronic optical colony counter and the clonogenicity of treated cells calculated in comparison to untreated control cells.

SMILES	pIC50 [1]	pIC50 [2]	pIC50 [3]
CN1CCN(CCCNc2cc3c(cn2)cc(-c2c(Cl)cccc2Cl)c(=O)n3C)CC1 [Example H, 3-(2,6-dichlorophenyl)-1-methyl-7-[3-(4-methylpiperazin-1-yl)propylamino]-1H-[1,6]naphthyridin-2-one]	7.30	5.00	–
CN1CCN(CCOc2ccc(Nc3cc4c(cn3)cc(-c3c(Cl)cccc3Cl)c(=O)n4C)cc2)CC1 [Example S, 3-(2,6-dichlorophenyl)-1-methyl-7-[(4-(2-(4-methylpiperazin-1-yl)ethoxy)phenyl)amino]-1H-[1,6]naphthyridin-2-one]	–	–	5.55
CCN(CC)CCCCNc1cc2c(cn1)cc(-c1c(Cl)cccc1Cl)c(=O)n2C [Example F, 3-(2,6-dichlorophenyl)-7-[4-(diethylamino)butylamino]-1-methyl-1H-[1,6]naphthyridin-2-one]	7.15	< 5.00	< 5.30
